Experimental findings from patent US20250179052A1, “PYRIMIDINYL-OXY-QUINOLINE BASED HERBICIDAL COMPOUNDS” (SYNGENTA CROP PROTECTION AG, priority 2022, published 2025) are described below.

Common to all, as to conditions: 250 g/ha, evaluated after 13 days, five-point scale
Assay [1] has as its system Echinochloa crus-galli (ECHCG). Nature of the assay: Pre-emergence herbicidal glasshouse test. The format is in vivo.
In assay [2] the test system is Ipomoea hederacea (IPOHE). Nature of the assay: Pre-emergence herbicidal glasshouse test. The format is in vivo.
For assay [3], the system named is Amaranthus retoflexus (AMARE). Nature of the assay: Post-emergence herbicidal glasshouse test. The format is in vivo.
In assay [4] the test system is Amaranthus retoflexus (AMARE). Nature of the assay: Pre-emergence herbicidal glasshouse test. The format is in vivo.
Assay [5] deals with Ipomoea hederacea (IPOHE). Nature of the assay: Post-emergence herbicidal glasshouse test. The format is in vivo.
Assay [6] has as its system AMAPA. Nature of the assay: Post-emergence herbicidal glasshouse test. The format is in vivo, Amaranthus tuberculatus.
Assay [7] concerns Echinochloa crus-galli (ECHCG). Nature of the assay: Post-emergence herbicidal glasshouse test. The format is in vivo.
In assay [8] the test system is AMAPA. Nature of the assay: Pre-emergence herbicidal glasshouse test. The format is in vivo, Amaranthus tuberculatus.

Molecules are shown by their SMILES.

With `Cc1ccc(Oc2ncc(F)cn2)c2cnc(C(F)F)nc12` [Compound 1.027], the “percentage damage caused to the plant, ECHCG” value in assay [1] and in assay [7] was 1 (1=0-20%) in each case. Also, the “percentage damage caused to the plant, IPOHE” value was 1 (1=0-20%) in assay [2] and 2 (2=21-40%) in assay [5]. In addition, the “percentage damage caused to the plant, AMARE” value in assay [3] and in assay [4] was 2 (2=21-40%) throughout. Besides, the “percentage damage caused to the plant, AMAPA” value with AMAPA [6] and in the assay with AMAPA [8] was 2 (2=21-40%) each time.

`Cc1ccc(Oc2ncc(Cl)cn2)c2cnc(C(F)(F)F)nc12` [Compound 1.028]: the “percentage damage caused to the plant, ECHCG” value in assay [1] is 2 (2=21-40%); in assay [7], 1 (1=0-20%). Besides, the “percentage damage caused to the plant, IPOHE” value is recorded as 1 (1=0-20%) in assay [2] and 2 (2=21-40%) in assay [5]. For the same compound, the “percentage damage caused to the plant, AMARE” value in assay [3] is recorded as 2 (2=21-40%); in assay [4], 5 (5=81-100%). In addition, the “percentage damage caused to the plant, AMAPA” value with AMAPA [6] is 3 (3=41-60%); in the assay on AMAPA [8], 5 (5=81-100%).

As for `Cc1ccc(Oc2ncc(F)cn2)c2ccc(C(F)(F)F)nc12` [Compound 1.029], the “percentage damage caused to the plant, ECHCG” value in assay [1] and in assay [7] was 1 (1=0-20%) throughout. Also, the entries for the “percentage damage caused to the plant, IPOHE” value in assay [2] and in assay [5] were 1 (1=0-20%) and 2 (2=21-40%), respectively. In addition, the “percentage damage caused to the plant, AMARE” value in assay [3] is on record as 3 (3=41-60%); in assay [4] it was 2 (2=21-40%). Besides, the “percentage damage caused to the plant, AMAPA” value with AMAPA [6] is 4 (4=61-80%); in the assay on AMAPA [8] it was 3 (3=41-60%).

On to `COc1ncc2c(Oc3ncc(F)cn3)ccc(Br)c2n1` [Compound 1.030], for which the “percentage damage caused to the plant, ECHCG” value in assay [1] and in assay [7] was 1 (1=0-20%) each time. Besides, the “percentage damage caused to the plant, IPOHE” value in assay [2] and in assay [5] was 1 (1=0-20%) in each case. The entries for the “percentage damage caused to the plant, AMARE” value in assay [3] and in assay [4] were 2 (2=21-40%) and 1 (1=0-20%), respectively. For the same compound, the “percentage damage caused to the plant, AMAPA” value in the assay with AMAPA [6] was 3 (3=41-60%); in the assay with AMAPA [8], 1 (1=0-20%).

On to `COc1ncc2c(Oc3ncc(Br)cn3)ccc(Br)c2n1` [Compound 1.031], for which the “percentage damage caused to the plant, ECHCG” value in assay [1] and in assay [7] was 1 (1=0-20%) each time. The “percentage damage caused to the plant, IPOHE” value in assay [2] and in assay [5] was 1 (1=0-20%) throughout. The “percentage damage caused to the plant, AMARE” value in assay [3] and in assay [4] was 1 (1=0-20%) throughout. For the same compound, the “percentage damage caused to the plant, AMAPA” value with AMAPA [6] and in the assay on AMAPA [8] was 1 (1=0-20%) throughout.

For the compound `FC(F)(F)c1ccc2c(Oc3ncc(Cl)cn3)ccc(Br)c2n1` [Compound 1.032], the “percentage damage caused to the plant, ECHCG” value in assay [1] and in assay [7] was 1 (1=0-20%) in each case. The “percentage damage caused to the plant, IPOHE” value in assay [2] and in assay [5] was 1 (1=0-20%) in each case. In addition, the “percentage damage caused to the plant, AMARE” value in assay [3] was 2 (2=21-40%); in assay [4] it was 1 (1=0-20%). Also, the “percentage damage caused to the plant, AMAPA” value in the assay on AMAPA [6] is given as 2 (2=21-40%); in the assay on AMAPA [8], 1 (1=0-20%).

With `Fc1cnc(Oc2ccc(Br)c3nc(C(F)(F)F)ccc23)nc1` [Compound 1.033], the “percentage damage caused to the plant, ECHCG” value in assay [1] and in assay [7] was 1 (1=0-20%) throughout. The “percentage damage caused to the plant, IPOHE” value in assay [2] and in assay [5] was 1 (1=0-20%) each time. Moreover, the entries for the “percentage damage caused to the plant, AMARE” value in assay [3] and in assay [4] were 2 (2=21-40%) and 3 (3=41-60%), respectively. The “percentage damage caused to the plant, AMAPA” value is recorded as 1 (1=0-20%) in the assay on AMAPA [6] and 3 (3=41-60%) in the assay on AMAPA [8].

For `FC(F)(F)c1ccc2c(Oc3ncc(Br)cn3)ccc(Br)c2n1` [Compound 1.034], the “percentage damage caused to the plant, ECHCG” value in assay [1] and in assay [7] was 1 (1=0-20%) throughout. Moreover, the “percentage damage caused to the plant, IPOHE” value in assay [2] and in assay [5] was 1 (1=0-20%) each time. The “percentage damage caused to the plant, AMARE” value in assay [3] and in assay [4] was 1 (1=0-20%) in each case. For the same compound, the “percentage damage caused to the plant, AMAPA” value in the assay on AMAPA [6] and in the assay on AMAPA [8] was 1 (1=0-20%) throughout.

As for `Cc1ccc(Oc2ncc(Cl)cn2)c2ccc(C(F)(F)F)nc12` [Compound 1.035], the “percentage damage caused to the plant, ECHCG” value in assay [1] and in assay [7] was 1 (1=0-20%) each time. Moreover, the “percentage damage caused to the plant, IPOHE” value in assay [2] is on record as 1 (1=0-20%); in assay [5], 2 (2=21-40%). The “percentage damage caused to the plant, AMARE” value is given as 3 (3=41-60%) in assay [3] and 2 (2=21-40%) in assay [4]. Moreover, the “percentage damage caused to the plant, AMAPA” value with AMAPA [6] is on record as 3 (3=41-60%); in the assay on AMAPA [8] it was 2 (2=21-40%).

`Cc1cnc(Oc2ccc(C)c3nc(C(F)(F)Cl)ncc23)nc1` [Compound 1.036]: the “percentage damage caused to the plant, ECHCG” value in assay [1] and in assay [7] was 1 (1=0-20%) in each case. Besides, the “percentage damage caused to the plant, IPOHE” value in assay [2] and in assay [5] was 1 (1=0-20%) in each case. In addition, the “percentage damage caused to the plant, AMARE” value in assay [3] is 2 (2=21-40%); in assay [4] it was 4 (4=61-80%). Further, the “percentage damage caused to the plant, AMAPA” value in the assay with AMAPA [6] and with AMAPA [8] was 3 (3=41-60%) in each case.

On to `Cc1cnc(Oc2ccc(Cl)c3nc(C(F)(F)Cl)ncc23)nc1` [Compound 1.037], for which the “percentage damage caused to the plant, ECHCG” value in assay [1] and in assay [7] was 1 (1=0-20%) in each case. Also, the “percentage damage caused to the plant, IPOHE” value in assay [2] and in assay [5] was 1 (1=0-20%) each time. Moreover, the “percentage damage caused to the plant, AMARE” value is recorded as 2 (2=21-40%) in assay [3] and 5 (5=81-100%) in assay [4]. The “percentage damage caused to the plant, AMAPA” value in the assay with AMAPA [6] is reported as 2 (2=21-40%); in the assay on AMAPA [8], 4 (4=61-80%).

Take `Cc1nc(C(F)(F)Cl)nc2cccc(Oc3ncc(F)cn3)c12` [Compound 1.038]: the figures for the “percentage damage caused to the plant, ECHCG” value in assay [1] and in assay [7] were 4 (4=61-80%) and 3 (3=41-60%), respectively. The figures for the “percentage damage caused to the plant, IPOHE” value in assay [2] and in assay [5] were 5 (5=81-100%) and 3 (3=41-60%), respectively. The “percentage damage caused to the plant, AMARE” value is given as 4 (4=61-80%) in assay [3] and 5 (5=81-100%) in assay [4]. The “percentage damage caused to the plant, AMAPA” value in the assay on AMAPA [6] and in the assay on AMAPA [8] was 5 (5=81-100%) throughout.

Consider `FC(F)c1ncc2c(Oc3ncc(Br)cn3)ccc(Cl)c2n1` [Compound 1.039], for which the “percentage damage caused to the plant, ECHCG” value in assay [1] and in assay [7] was 1 (1=0-20%) each time. Further, the “percentage damage caused to the plant, IPOHE” value in assay [2] and in assay [5] was 1 (1=0-20%) throughout. For the same compound, the “percentage damage caused to the plant, AMARE” value is given as 2 (2=21-40%) in assay [3] and 1 (1=0-20%) in assay [4]. The “percentage damage caused to the plant, AMAPA” value was 2 (2=21-40%) in the assay with AMAPA [6] and 1 (1=0-20%) in the assay on AMAPA [8].

As for `Fc1cnc(Oc2cccc3nc(C(F)(F)F)ccc23)nc1` [Compound 1.042], the figures for the “percentage damage caused to the plant, ECHCG” value in assay [1] and in assay [7] were 5 (5=81-100%) and 4 (4=61-80%), respectively. In addition, the “percentage damage caused to the plant, IPOHE” value in assay [2] was 5 (5=81-100%); in assay [5], 4 (4=61-80%). The “percentage damage caused to the plant, AMARE” value in assay [3] and in assay [4] was 5 (5=81-100%) each time. Besides, the “percentage damage caused to the plant, AMAPA” value with AMAPA [6] and in the assay on AMAPA [8] was 5 (5=81-100%) in each case.

As to `Fc1cnc(Oc2ccc(Cl)c3nc(C(F)(F)Cl)ncc23)nc1` [Compound 1.043], the “percentage damage caused to the plant, ECHCG” value in assay [1] and in assay [7] was 1 (1=0-20%) throughout. In addition, the “percentage damage caused to the plant, IPOHE” value is 1 (1=0-20%) in assay [2] and 2 (2=21-40%) in assay [5]. In addition, the “percentage damage caused to the plant, AMARE” value in assay [3] is reported as 3 (3=41-60%); in assay [4], 4 (4=61-80%). For the same compound, the “percentage damage caused to the plant, AMAPA” value is listed as 3 (3=41-60%) in the assay with AMAPA [6] and 4 (4=61-80%) in the assay on AMAPA [8].

In the case of `Fc1cnc(Oc2ccc(Cl)c3nc(C(F)F)ncc23)nc1` [Compound 1.046], the “percentage damage caused to the plant, ECHCG” value in assay [1] and in assay [7] was 1 (1=0-20%) throughout. The “percentage damage caused to the plant, IPOHE” value in assay [2] was 1 (1=0-20%); in assay [5] it was 2 (2=21-40%). The figures for the “percentage damage caused to the plant, AMARE” value in assay [3] and in assay [4] were 2 (2=21-40%) and 5 (5=81-100%), respectively. Besides, the “percentage damage caused to the plant, AMAPA” value with AMAPA [6] is on record as 1 (1=0-20%); in the assay with AMAPA [8] it was 4 (4=61-80%).
